Here are results for 17 molecules from US10611740B2, “Aryl dihydro-2H-benzo[b][1,4]oxazine sulfonamide and related compounds for use as agonists of RORγ and the treatment of disease” (Lycera Corporation, priority 2015, dated 2020).

Some results are limits rather than exact numbers.

This assay has as its target T1, RORγ-LBD (Homo sapiens, UniProt P51449).
T1 construct: made in house; host or cells: SF9 cells (baculovirus)
T1 sequence (P51449 269-508 limits assumed): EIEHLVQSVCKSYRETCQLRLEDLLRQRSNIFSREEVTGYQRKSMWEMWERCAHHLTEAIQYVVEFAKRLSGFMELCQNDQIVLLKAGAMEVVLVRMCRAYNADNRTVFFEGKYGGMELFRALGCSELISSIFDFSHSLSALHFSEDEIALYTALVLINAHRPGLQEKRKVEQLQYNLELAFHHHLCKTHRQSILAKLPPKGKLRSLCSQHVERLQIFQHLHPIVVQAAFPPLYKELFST
Kind of assay: RORγ-Ligand Binding Domain (LBD) TR-FRET Assay.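 As to TR-FRET Assay Max Response: 665/615 nm ratio relative to signal without ursolic acid or compound set at 100.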 Format: biochemical. Here is the method: Assay procedures and results are described below.
HIS-tagged RORγ-LBD protein was expressed in SF9 cells using a baculovirus expression system. The lysate was diluted in assay buffer (50 mM Tris pH 7.0, 50 mM KCl, 1 mM EDTA, 0.1 mM DTT, 0.01% BSA) to obtain RORγ-LBD final concentration of ˜3 nM in a 384-well assay plate (need to titrate for each batch of protein).
A stock of biotinylated-LXXLL peptide from coactivator SRC1 (Biotin-[…]) was prepared in assay buffer and added to each well (200 nM final concentration). […] RORγ antagonist ursolic acid was also included at a final concentration of 2 μM. Compounds were diluted in DMSO and further diluted in assay buffer with a final DMSO concentration at 1%.
Background: Time-resolved FRET reads energy transfer from a long-lived donor to a nearby acceptor.
The EC50 is the concentration that produces a half-maximal response. Low values mean greater potency, high ones weaker potency. Take `Cc1coc(-c2ccc3c(c2)N(S(=O)(=O)c2cccc(C(F)(F)F)c2)C[C@H](CCC(=O)O)O3)n1` [Compound 25, (S)-3-(6-(4-methyloxazol-2-yl)-4-((3-(trifluoromethyl)phenyl)sulfonyl)-3,4-dihydro-2H-benzo[b][1,4]oxazin-2-yl)propanoic acid]: the EC50 lay in the range of 0.5 to 5 µM and the “TR-FRET Assay Max Response” value is given as “** (The symbol “**” indicates a value in the range of greater than 90 to 150)”.
As to `O=C1CC[C@](C[C@H]2CN(S(=O)(=O)c3cccc(C(F)(F)F)c3)c3cc(-c4cc(F)cc(OC(F)F)c4)ccc3O2)(C(=O)O)N1` [Compound 77D, (S)-2-(((S)-6-(3-(difluoro-methoxy)-5-fluorophenyl)-4-((3-(trifluoromethyl)phenyl)sulfonyl)-3,4-dihydro-2H-benzo[b][1,4]-oxazin-2-yl)methyl)-5-oxopyrrolidine-2-carboxylic acid], the EC50 is less than 0.5 µM and the “TR-FRET Assay Max Response” value is “** (The symbol “**” indicates a value in the range of greater than 90 to 150)”.
In the case of `C[C@@H](C[C@H]1CN(S(=O)(=O)c2cccc(C(F)(F)F)c2)c2cc(-c3cccc(C(F)(F)F)n3)ccc2O1)C(=O)O` [Compound 46T, (S)-2-methyl-3-((S)-4-((3-(trifluoromethyl)phenyl)sulfonyl)-6-(6-(trifluoromethyl)pyridin-2-yl)-3,4-dihydro-2H-benzo[b][1,4]-oxazin-2-yl)propanoic acid], the EC50 is less than 0.5 µM and the “TR-FRET Assay Max Response” value was “*** (The symbol “***” indicates a value in the range of greater than 150 to 200)”.
Turning to `O=C(O)CC[C@H]1CN(S(=O)(=O)c2cccc(C(F)(F)F)c2)c2cc(-c3cccc(-c4ccccc4)n3)ccc2O1` [Compound 4AI, (S)-3-(6-(6-phenylpyridin-2-yl)-4-((3-(trifluoromethyl)-phenyl)sulfonyl)-3,4-dihydro-2H-benzo[b][1,4]oxazin-2-yl)propanoic acid], the half-maximal effective concentration (EC50) is less than 0.5 µM and the “TR-FRET Assay Max Response” value is recorded as “** (The symbol “**” indicates a value in the range of greater than 90 to 150)”.
For the molecule `C[C@H](C[C@H]1CN(S(=O)(=O)c2cccc(C(F)(F)F)c2)c2cc(-c3cc(F)cc(F)c3Cl)ccc2O1)C(=O)O` [Compound 46M, (R)-3-((S)-6-(2-chloro-3,5-difluorophenyl)-4-((3-(trifluoromethyl)phenyl)sulfonyl)-3,4-dihydro-2H-benzo[b][1,4]oxazin-2-yl)-2-methylpropanoic acid], the EC50 is less than 0.5 µM and the “TR-FRET Assay Max Response” value was “*** (The symbol “***” indicates a value in the range of greater than 150 to 200)”.
Regarding `NS(=O)(=O)CCC(=O)NC[C@H]1CN(S(=O)(=O)c2cccc(C(F)(F)F)c2)c2cc(-c3cccc(F)c3Cl)ccc2O1` [Compound 30BK, (S)-N-((6-(2-chloro-3-fluoro-phenyl)-4-((3-(trifluoromethyl)-phenyl)sulfonyl)-3,4-dihydro-2H-benzo[b][1,4]oxazin-2-yl)methyl)-3-sulfamoylpropanamide], the EC50 is less than 0.5 µM and the “TR-FRET Assay Max Response” value is “*** (The symbol “***” indicates a value in the range of greater than 150 to 200)”.
On to `O=C(O)CC[C@H]1CN(S(=O)(=O)c2cccc(C(F)(F)F)c2)c2cc(-c3ccc(F)c(F)c3)ccc2O1` [Compound 2F, (S)-3-(6-(3,4-difluorophenyl)-4-((3-(trifluoromethyl)phenyl)-sulfonyl)-3,4-dihydro-2H-benzo[b][1,4]oxazin-2-yl)propanoic acid], for which the concentration giving a half-maximal response (EC50) is less than 0.5 µM and the “TR-FRET Assay Max Response” value is listed as “** (The symbol “**” indicates a value in the range of greater than 90 to 150)”.
For `O=C(O)[C@H]1C[C@@H]([C@H]2CN(S(=O)(=O)c3cccc(C(F)(F)F)c3)c3cc(-c4cc(F)ccc4F)ccc3O2)C1` [Compound 60H, (1R,3s)-3-((S)-6-(2,5-difluoro-phenyl)-4-((3-(trifluoromethyl)-phenyl)sulfonyl)-3,4-dihydro-2H-benzo[b][1,4]oxazin-2-yl)cyclobutane-1-carboxylic acid], in that order: less than 0.5 µM and “** (The symbol “**” indicates a value in the range of greater than 90 to 150)”.
On to `CC(C)(C[C@@H]1CN(S(=O)(=O)c2cccc(C(F)(F)F)c2)c2cc(-c3cc(F)ccc3F)ccc2O1)NC(=O)C(C)(C)O` [Compound 30DD, (R)-N-(1-(6-(2,5-difluoro-phenyl)-4-((3-(trifluoromethyl)-phenyl)sulfonyl)-3,4-dihydro-2H-benzo[b][1,4]oxazin-2-yl)-2-methylpropan-2-yl)-2-hydroxy-2-methylpropanamide], for which the EC50 is less than 0.5 µM and the “TR-FRET Assay Max Response” value is listed as “*** (The symbol “***” indicates a value in the range of greater than 150 to 200)”.
Consider `O=C(O)CC[C@H]1CN(S(=O)(=O)c2cccc(C(F)(F)F)c2)c2cc(-c3cc(F)cc(OC(F)F)c3)cc(F)c2O1` [Compound 22M, (S)-3-(6-(3-(difluoromethoxy)-5-fluorophenyl)-8-fluoro-4-((3-(trifluoromethyl)phenyl)sulfonyl)-3,4-dihydro-2H-benzo[b][1,4]-oxazin-2-yl)propanoic acid], for which the EC50 was less than 0.5 µM and the “TR-FRET Assay Max Response” value is “*** (The symbol “***” indicates a value in the range of greater than 150 to 200)”.
Turning to `O=C(O)[C@H]1C[C@H]([C@H]2CN(S(=O)(=O)c3cccc(C(F)(F)F)c3)c3cc(-c4cc(F)ccc4F)ccc3O2)C1` [Compound 60I, (1S,3r)-3-((S)-6-(2,5-difluoro-phenyl)-4-((3-(trifluoromethyl)-phenyl)sulfonyl)-3,4-dihydro-2H-benzo[b][1,4]oxazin-2-yl)cyclobutane-1-carboxylic acid], the EC50 was less than 0.5 µM and the “TR-FRET Assay Max Response” value is listed as “** (The symbol “**” indicates a value in the range of greater than 90 to 150)”.
The matching figures for `O=C1CC[C@@](C[C@H]2CN(S(=O)(=O)c3cccc(C(F)(F)F)c3)c3cc(-c4cc(F)cc(OC(F)F)c4)ccc3O2)(C(=O)O)N1` [Compound 77C, (R)-2-(((S)-6-(3-(difluoro-methoxy)-5-fluorophenyl)-4-((3-(trifluoromethyl)phenyl)sulfonyl)-3,4-dihydro-2H-benzo[b][1,4]-oxazin-2-yl)methyl)-5-oxopyrrolidine-2-carboxylic acid]: less than 0.5 µM and “** (The symbol “**” indicates a value in the range of greater than 90 to 150)”.
For the molecule `O=C(O)CNC(=O)CC[C@H]1CN(S(=O)(=O)c2cccc(C(F)(F)F)c2)c2cc(-c3cccc(F)c3F)ccc2O1` [Compound 23O, (S)-(3-(6-(2,3-difluorophenyl)-4-((3-(trifluoromethyl)-phenyl)sulfonyl)-3,4-dihydro-2H-benzo[b][1,4]oxazin-2-yl)propanoyl)glycine], the 50% effective concentration (EC50) was less than 0.5 µM and the “TR-FRET Assay Max Response” value is “**** (The symbol “****” indicates a value greater than 200)”.
Turning to `CN(C)c1cc(C(F)(F)F)cc(-c2ccc3c(c2)N(S(=O)(=O)c2cccc(C(F)(F)F)c2)C[C@H](CCC(=O)O)O3)n1` [Compound 4AT, (S)-3-(6-(6-(dimethylamino)-4-(trifluoromethyl)pyridin-2-yl)-4-((3-(trifluoromethyl)phenyl)-sulfonyl)-3,4-dihydro-2H-benzo[b][1,4]oxazin-2-yl)propanoic acid], the concentration for a half-maximal effect (EC50) fell in the range of 0.5 to 5 µM and the “TR-FRET Assay Max Response” value is reported as “*** (The symbol “***” indicates a value in the range of greater than 150 to 200)”.
In the case of `CC(C)(C[C@@H]1CN(S(=O)(=O)c2cccc(C(F)(F)F)c2)c2cc(-c3cc(F)ccc3F)ccc2O1)NS(C)(=O)=O` [Compound 30DF, (R)-N-(1-(6-(2,5-difluoro-phenyl)-4-((3-(trifluoromethyl)-phenyl)sulfonyl)-3,4-dihydro-2H-benzo[b][1,4]oxazin-2-yl)-2-methylpropan-2-yl)methane-sulfonamide], the EC50 was less than 0.5 µM and the “TR-FRET Assay Max Response” value is given as “*** (The symbol “***” indicates a value in the range of greater than 150 to 200)”.
Regarding `O=C(NCC[C@H]1CN(S(=O)(=O)c2cccc(C(F)(F)F)c2)c2cc(-c3cc(F)ccc3F)ccc2O1)NC[C@H](O)C(=O)O` [Compound 23Z, (S)-3-(3-(2-((S)-6-(2,5-difluorophenyl)-4-((3-(trifluoro-methyl)phenyl)sulfonyl)-3,4-dihydro-2H-benzo[b][1,4]oxazin-2-yl)ethyl)ureido)-2-hydroxypropanoic acid], the EC50 was less than 0.5 µM and the “TR-FRET Assay Max Response” value was “**** (The symbol “****” indicates a value greater than 200)”.
On to `O=C(NC[C@H]1CN(S(=O)(=O)c2cccc(C(F)(F)F)c2)c2cc(-c3cc(F)cc(OC(F)F)c3)ccc2O1)c1ccn[nH]1` [Compound 30DB, (S)-N-((6-(3-(difluoromethoxy)-5-fluorophenyl)-4-((3-(trifluoromethyl)phenyl)sulfonyl)-3,4-dihydro-2H-benzo[b][1,4]oxazin-2-yl)methyl)-1H-pyrazole-5-carboxamide], for which the EC50 is less than 0.5 µM and the “TR-FRET Assay Max Response” value is listed as “*** (The symbol “***” indicates a value in the range of greater than 150 to 200)”.
